How the values were obtained:
[1] = biological target: T1, HCV polymerase (NS5B570n-Con1) (Hepatitis C virus genotype 1b, UniProt Q9WMX2); assay: HCV NS5B RNA polymerase activity (incorporation of radiolabeled nucleotide into RNA); format: biochemical, HCV Con1 strain
T1 construct: contains a 21 amino acid deletion at the C-terminus relative to the full-length HCV polymerase; 6-histidine (N); made in house; host or cells: E. coli BL21(DE) pLysS, plasmid pET17b
Procedure: The enzymatic activity of HCV polymerase (NS5B570n-Con1) was measured as the incorporation of radiolabeled nucleotide monophosphates into acid insoluble RNA products. Unincorporated radio labeled substrate was removed by filtration and scintillant was added to the washed and dried filter plate containing radio labeled RNA product. The amount of RNA product generated by NS5B570-Con1 at the end of the reaction was directly proportional to the amount of light emitted by the scintillant.
The N-terminal 6-histidine tagged HCV polymerase, derived from HCV Con1 strain, genotype 1b (NS5B570n-Con1) contains a 21 amino acid deletion at the C-terminus relative to the full-length HCV polymerase and was purified from E. coli strain BL21(DE) pLysS. The construct, containing the coding sequence of HCV NS5B Con1 (GenBank accession number AJ242654) was inserted into the plasmid construct pET17b, downstream of a T7 promoter expression cassette and transformed into E. coli. A single colony was grown overnight as a starter culture and later used inoculate 10 L of LB media supplemented with 100 μg/mL ampicillin at 37° C. Protein expression was induced by the addition of 0.25 mM isopropyl-β-D-thiogalactopyranoside (IPTG) when optical density at […] of the culture was between 0.6 and 0.8 and cells were harvested after 16 to 18 h at 30° C. NS5B570n-Con1 was purified to homogeneity using a three-step protocol including subsequent column chromatography on Ni-NTA, SP-Sepharose HP and Superdex 75 resins.
Each 50 μl enzymatic reaction contained 20 nM RNA template derived from the complementary sequence of the Internal Ribosome Entry Site (cIRES), 20 nM NS5B570n-Con1 enzyme, 0.5 μCi of tritiated UTP (Perkin Elmer catalog no. TRK-412; specific activity: 30 to 60 Ci/mmol; stock solution concentration from 7.5×10^-5 M to 20.6×10^-6 M), 1 μM each ATP, CTP, and GTP, 40 mM Tris-HCl pH 8.0, 40 mM NaCl, 4 mM DTT (dithiothreitol), 4 mM MgCl2, and 5 μl of compound serial diluted in DMSO. Reaction mixtures were assembled in 96-well filter plates (cat #MADVN0B, Millipore Co.) and incubated for 2 h at 30° C. Reactions were stopped by addition of 10% final (v/v) trichloroacetic acid and incubated for 40 min at 4° C. Reactions were filtered, washed with 8 reaction volumes of 10% (v/v) trichloroacetic acetic acid, 4 reaction volumes of 70% (v/v) ethanol, air dried, and 25 μl of scintillant (Microscint 20, Perkin-Elmer) was added to each reaction well.
The amount of light emitted from the scintillant was converted to counts per minute (CPM) on a Topcount® plate reader (Perkin-Elmer, Energy Range: Low, Efficiency Mode Normal, Count Time: 1 min, Background Subtract: none, Cross talk reduction: Off).
Data was analyzed in Excel® (Microsoft) and ActivityBase® (Idbs®). The reaction in the absence of enzyme was used to determine the background signal, which was subtracted from the enzymatic reactions. Positive control reactions were performed in the absence of compound, from which the background corrected activity was set as 100% polymerase activity. All data was expressed as a percentage of the positive control. The compound concentration at which the enzyme-catalyzed rate of RNA synthesis was reduced by 50% (IC50) was calculated by fitting
[formula] equation (i) to the data where “Y” corresponds to the relative enzyme activity (in %), “% Min” is the residual relative activity at saturating compound concentration, “% Max” is the relative maximum enzymatic activity, “X” corresponds to the compound concentration, and “S” is the Hill coefficient (or slope).

in vitro = details: human
[2] = system: HCV replicon (genotype 1b, cell line 2209-23); assay: HCV replicon assay (Renilla luciferase reporter); format: cell-based, HCV genotype 1b; details: Hepatitis C virus, 72 h; three days incubation, luciferase readout
HCV = details: monotherapy / sole treatment; cited from earlier work

Q: With CC(C)(C)c1cc(-c2ccc[nH]c2=O)c2[nH]c(=O)c(-c3ccccc3)cc2c1 [Compound I-4] as the compound, how does the IC50 [1] read?
A: 91 nM

Q: And the melting point?
A: 200 to 202 °C

Q: With CC(C)(C)c1cc(-c2ccc[nH]c2=O)c2oc(=O)c(-c3ccc(N)cc3)cc2c1 [Compound I-3] as the compound, how does the IC50 [1] read?
A: 34 nM

Q: What about the melting point of the same compound?
A: > 300 °C

Q: For Cn1c(=O)c(-c2ccc(NS(C)(=O)=O)cc2)cc2cc(C(C)(C)C)cc(-c3ccc[nH]c3=O)c21 [Compound I-8, N-{4-[6-tert-Butyl-1-methyl-2-oxo-8-(2-oxo-1,2-dihydro-pyridin-3-yl)-1,2-dihydro-quinolin-3-yl]-phenyl}-methanesulfonamide], which IC50 [1] is on record?
A: 6 nM

Q: And the melting point?
A: > 300 °C

Q: With Cn1c(=O)c(-c2ccc(S(N)(=O)=O)cc2)cc2cc(C(C)(C)C)cc(-c3ccc[nH]c3=O)c21 [Compound I-12] as the compound, how does the IC50 [1] read?
A: 2370 nM

Q: What about the melting point of the same compound?
A: > 300 °C

Q: With CC(C)(C)c1cc2c(c(-c3ccc[nH]c3=O)c1)OC(O)C(c1ccc(NS(C)(=O)=O)cc1)C2 (stereo not shown) [Compound I-18, N-{4-[6-tert-Butyl-2-hydroxy-8-(2-oxo-1,2-dihydro-pyridin-3-yl)-chroman-3-yl]-phenyl}-methanesulfonamide] as the compound, how does the IC50 [1] read?
A: 7 nM

Q: And the melting point?
A: 228 to 230 °C

Q: Which IC50 [1] does the source give for CC(C)(C)c1cc(-c2ccc[nH]c2=O)c2[nH]c(=O)ccc2c1 [Compound I-2] here?
A: 332 nM

Q: What about the melting point of the same compound?
A: > 300 °C

Q: For CC(C)(C)c1cc(-c2ccc[nH]c2=O)c2c(=O)[nH]c(-c3ccc(NS(C)(=O)=O)cc3)cc2c1 [Compound I-14, N-{4-[6-tert-Butyl-1-oxo-8-(2-oxo-1,2-dihydro-pyridin-3-yl)-1,2-dihydro-isoquinolin-3-yl]-phenyl}-methanesulfonamide], which IC50 [1] is on record?
A: 16 nM

Q: What about the melting point of the same compound?
A: > 300 °C

Q: For CC(C)(C)c1cc(-c2ccc[nH]c2=O)c2oc(=O)c(-c3ccc(NS(C)(=O)=O)cc3)cc2c1 [Compound I-5, N-{4-[6-tert-Butyl-2-oxo-8-(2-oxo-1,2-dihydro-pyridin-3-yl)-2H-chromen-3-yl]-phenyl}-methanesulfonamide], which CC50 at 3 days (in vitro) is on record?
A: 95100 nM

Q: What about the IC50 [1] of the same compound?
A: 5 nM

Q: What about the melting point of the same compound?
A: 225 to 227 °C

Q: What about the IC50 [2] of the same compound?
A: 10 nM

Q: Which IC50 [1] does the source give for CC(C)(C)c1cc(-c2ccc[nH]c2=O)c2[nH]c(=O)c(-c3cccc(NS(C)(=O)=O)c3)cc2c1 [Compound I-10, N-{3-[6-tert-Butyl-2-oxo-8-(2-oxo-1,2-dihydro-pyridin-3-yl)-1,2-dihydro-quinolin-3-yl]-phenyl}-methanesulfonamide] here?
A: 531 nM

Q: What about the melting point of the same compound?
A: 233 to 235 °C

Q: With CC(C)(C)c1cc(-c2ccc[nH]c2=O)c2[nH]c(=O)c(-c3cccc(C(N)=O)c3)cc2c1 [Compound I-13] as the compound, how does the IC50 [1] read?
A: 36 nM

Q: And the melting point?
A: 255 to 257 °C

Q: With Cn1c(=O)c(-c2ccc(O)cc2)cc2cc(C(C)(C)C)cc(-c3ccc[nH]c3=O)c21 [Compound I-7] as the compound, how does the IC50 [1] read?
A: 900 nM

Q: And the melting point?
A: > 300 °C

Q: Which IC50 [1] does the source give for CC(C)(C)c1cc(-c2ccc[nH]c2=O)c2c(=O)oc(-c3ccc(NS(C)(=O)=O)cc3)cc2c1 [Compound I-15, N-{4-[6-tert-Butyl-1-oxo-8-(2-oxo-1,2-dihydro-pyridin-3-yl)-1H-isochromen-3-yl]-phenyl}methanesulfonamide] here?
A: 8 nM

Q: Which IC50 [1] does the source give for CC(C)(C)c1cc(-c2ccc[nH]c2=O)c2[nH]c(=O)c(-c3ccc(NS(C)(=O)=O)cc3)cc2c1 [Compound I-9] here?
A: 5 nM

Q: And the melting point?
A: > 300 °C

Q: For Cn1c(=O)c(-c2ccccc2)cc2cc(C(C)(C)C)cc(-c3ccc[nH]c3=O)c21 [Compound I-6], which IC50 [1] is on record?
A: 456 nM

Q: What about the melting point of the same compound?
A: 290 to 292 °C

Q: For CC(C)(C)c1cc(-c2ccc[nH]c2=O)c2[nH]c(=O)c(-c3ccc(S(N)(=O)=O)cc3)cc2c1 [Compound I-11], which IC50 [1] is on record?
A: 46 nM

Q: What about the melting point of the same compound?
A: 250 to 252 °C

Q: For NC(=O)c1ncn([C@@H]2O[C@H](CO)[C@@H](O)[C@H]2O)n1 [ribavirin, 1-((2R,3R,4S,5R)-3,4-Dihydroxy-5-hydroxymethyl-tetrahydro-furan-2-yl)-1H-[1,2,4]triazole-3-carboxylic acid amide], which “serum levels of HCV-RNA” value (HCV) is on record?
A: does not lower serum levels of HCV-RNA

Q: With CC(C)(C)c1cc(-c2ccc[nH]c2=O)c2oc(=O)ccc2c1 [Compound I-1, 3-(6-tert-Butyl-2-oxo-2H-chromen-8-yl)-1H-pyridin-2-one] as the compound, how does the IC50 [1] read?
A: 1530 nM

Q: And the melting point?
A: > 300 °C

From patent publication US8168792B2, “Heterocyclic antiviral compounds” (Roche Palo Alto LLC, priority 2009, dated 2012)
